Experimental data reported in patent US9429582B2, “Tyrosine-phosphorylated WBP2, a novel cancer target and biomarker” (National University of Singapore, priority 2010, dated 2016).

Assays:
Type in all cases: cell-based, human
[1] = system: WBP2; assay: Estrogen/progesterone-induced WBP2 tyrosine phosphorylation in MCF7 (IP/IB); conditions: 10 nM E2 or 100 nM P4 for 24 hr, 10 μM Iressa pre-treatment for 1 hr
Procedure: A: Serum-starved cells were stimulated with 50 ng/ml EGF (E) for 5 min or hormone-stripped cells were stimulated with 10 nM Estrogen (E2) or 100 nM Progesterone (P4) for 24 hr with/without 10 μM Iressa (Ir) pre-treatment for 1 hr. Whole cell lysates were used for IP/IB analysis with antibodies indicated. […] D: Serum-starved MCF7 were stimulated with 50 ng/ml EGF (E) for 5 min or hormone-stripped cells were stimulated with 10 nM estrogen (E2) or 100 nM progesterone (P4) for 24 hr with/without 10 μM Iressa (Ir) pre-treatment for 1 hr. Whole cell lysates were used for IP/IB analysis with antibodies indicated. […] 24 hr post-transfection, serum-starved MCF7 were stimulated with 50 ng/ml EGF (E) for 5 min or hormone-stripped cells were stimulated with 10 nM Estrogen (E2) or 100 nM Progesterone (P4) for 24 hr. Whole cell lysates were used for IP/IB analysis with antibodies indicated. “O” denotes “untreated/vehicle-treated”
For all experiments involving estrogen/progesterone (Sigma), MCF7 and T47D were cultured in Phenol-Red Free RPMI1640 (Sigma) containing 5% Charcoal-dextran Stripped FBS (Hyclone) for at least 2 days before stimulation. […] Fresh hormone/drug was replenished every day for treatment that last for more than 1 day.
MCF7, MDA-MB231, T47D, HeLa and MCF10A were from American Type Culture Collection. […]

[2] = system: WBP2; assay: Subcellular fractionation of T47D, nuclear WBP2 upon estrogen stimulation; conditions: 10 nM E2 0-24 hr, 1 hr pretreatment with 10 μM Iressa
Procedure: (§1) A: Hormone-stripped MCF7 or T47D were co-transfected with vector, WBP2-WT or WBP2-Y192-231F mutant and ERE/PRE-Luciferase reporter constructs. Cells were either left alone or stimulated with (a) 50 ng/ml EGF for 5 min, (b) 10 nM E2/100 nM P4 for 24 hr, (c) E2/P4 and EGF in the absence or presence of 1 hr pretreatment with 100 μM Iressa(Ir). ERα/PR-transactivated luciferase activities in various conditions were then assayed. **P<0.01, ***P<0.001, Student's t-test (2-tailed). B: T47D were hormone-stripped and stimulated with 10 nM E2 for the indicated time (0-24 hr) in the absence and presence of 1 hr pretreatment with 10 μM Iressa(k). C: WT-WBP2 or Y192-231F mutant-transfected T47D were hormone stripped followed by 24 hr stimulation with 10 nM E2. For both experiments B and C, cells were then harvested for subcellular fractionation into nuclear and cytoplasmic fractions, which were used for IB/IP analysis with antibodies indicated. Histone 2A and GADPH were used as nuclear and cytoplasmic marker respectively. […] ERE (Top panel)/PR (Bottom panel)-transactivated luciferase activities in various conditions were then assayed analyzed in relative to vehicle-treated vector control. **P<0.01, ***P<0.001, Student's t-test (2-tailed). […] ERα-transactivated luciferase activities in various conditions were then assayed analyzed in relative to vehicle-treated vector control. […]

[3] = system: PR; assay: PRE-Luciferase reporter assay in T47D; conditions: 100 nM P4 24 hr, 1 hr pretreatment with Iressa
Procedure: as §1

[4] = system: ERα; assay: ERE-Luciferase reporter assay in MCF7; conditions: MCF7; 10 nM E2 24 hr; 1 hr pretreatment with Iressa
Procedure: as §1

progesterone-induced coactivator activity of WBP2 (PR reporter) [3]: abolished | estrogen-induced coactivator activity of WBP2 (ERα reporter) [4]: abolished
SMILES: COc1cc2ncnc(Nc3ccc(F)c(Cl)c3)c2cc1OCCCN1CCOCC1 [Iressa]
estrogen/progesterone-induced WBP2 phosphorylation [1]: Significant abolishment | nuclear WBP2 upon estrogen stimulation [2]: reduced
